Laboratory results reported in PubChem BioAssay (NCI).
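Step 1: Grow cells in 96-well plates. Step 2: Expose to compound for 48 hours at 5 concentrations. Step 3: Interpolate endpoints linearly; if unreached, use highest concentration. GI50 = concentration required for 50% inhibition of growth. TGI marks complete inhibition of growth.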

What was measured:
Assay in all cases: NCI-60 cell line screen, 48 h
786-0 renal = system: 786-0 renal
A498 renal = system: A498 renal
A549 NSCLC = system: A549 NSCLC
ACHN renal = system: ACHN renal
BT-549 breast = system: BT-549 breast
CAKI-1 renal = system: CAKI-1 renal
CCRF-CEM leukemia = system: CCRF-CEM leukemia
COLO 205 colon = system: COLO 205 colon
DU-145 prostate = system: DU-145 prostate
EKVX NSCLC = system: EKVX NSCLC
HCC-2998 colon = system: HCC-2998 colon
HCT-116 colon = system: HCT-116 colon
HCT-15 colon = system: HCT-15 colon
HL-60(TB) leukemia = system: HL-60(TB) leukemia
HOP-62 NSCLC = system: HOP-62 NSCLC
HOP-92 NSCLC = system: HOP-92 NSCLC
HS 578T breast = system: HS 578T breast
HT29 colon = system: HT29 colon
IGROV1 ovarian = system: IGROV1 ovarian
K-562 leukemia = system: K-562 leukemia
KM12 colon = system: KM12 colon
LOX IMVI melanoma = system: LOX IMVI melanoma
M14 melanoma = system: M14 melanoma
MALME-3M melanoma = system: MALME-3M melanoma
MCF7 breast = system: MCF7 breast
MDA-MB-231 breast = system: MDA-MB-231 breast
MDA-MB-435 = system: MDA-MB-435
MOLT-4 leukemia = system: MOLT-4 leukemia
NCI-H226 lung = system: NCI-H226 lung
NCI-H23 lung = system: NCI-H23 lung
NCI-H460 lung = system: NCI-H460 lung
NCI-H522 lung = system: NCI-H522 lung
NCI/ADR-RES ovarian = system: NCI/ADR-RES ovarian
OVCAR-3 ovarian = system: OVCAR-3 ovarian
OVCAR-4 ovarian = system: OVCAR-4 ovarian
OVCAR-5 ovarian = system: OVCAR-5 ovarian
OVCAR-8 ovarian = system: OVCAR-8 ovarian
PC-3 prostate = system: PC-3 prostate
SF-268 CNS = system: SF-268 CNS
SF-295 CNS = system: SF-295 CNS
SF-539 CNS = system: SF-539 CNS
SK-MEL-2 melanoma = system: SK-MEL-2 melanoma
SK-MEL-28 melanoma = system: SK-MEL-28 melanoma
SK-MEL-5 melanoma = system: SK-MEL-5 melanoma
SK-OV-3 ovarian = system: SK-OV-3 ovarian
SN12C renal = system: SN12C renal
SNB-19 CNS = system: SNB-19 CNS
SNB-75 CNS = system: SNB-75 CNS
SR leukemia = system: SR leukemia
SW-620 colon = system: SW-620 colon
T-47D breast = system: T-47D breast
TK-10 renal = system: TK-10 renal
U251 CNS = system: U251 CNS
UACC-257 melanoma = system: UACC-257 melanoma
UACC-62 melanoma = system: UACC-62 melanoma
UO-31 renal = system: UO-31 renal

**Q.** How did the GI50 (786-0 renal) turn out when `C#C[C@]1(O)CC[C@H]2[C@@H]3CC=C4c5sc(-c6ccc7c(c6)OCO7)nc5CC[C@]4(C)[C@H]3CC[C@@]21C` was run?
**A.** 0.841 µM

**Q.** What about the TGI (786-0 renal) of the same compound?
**A.** 3.78 µM

**Q.** What about the GI50 (A498 renal) of the same compound?
**A.** 1.63 µM

**Q.** What about the TGI (A498 renal) of the same compound?
**A.** 7.49 µM

**Q.** And the GI50 (A549 NSCLC)?
**A.** 2.76 µM

**Q.** What about the TGI (A549 NSCLC) of the same compound?
**A.** 8.48 µM

**Q.** What about the GI50 (ACHN renal) of the same compound?
**A.** 2.11 µM

**Q.** And the TGI (ACHN renal)?
**A.** 5.57 µM

**Q.** What about the GI50 (BT-549 breast) of the same compound?
**A.** 1.99 µM

**Q.** And the TGI (BT-549 breast)?
**A.** 5.67 µM

**Q.** And the GI50 (CAKI-1 renal)?
**A.** 2.63 µM

**Q.** And the TGI (CAKI-1 renal)?
**A.** 8.37 µM

**Q.** And the GI50 (CCRF-CEM leukemia)?
**A.** 2.8 µM

**Q.** And the TGI (CCRF-CEM leukemia)?
**A.** > 100 µM

**Q.** What about the GI50 (COLO 205 colon) of the same compound?
**A.** 3.87 µM

**Q.** What about the TGI (COLO 205 colon) of the same compound?
**A.** 27.8 µM

**Q.** And the GI50 (DU-145 prostate)?
**A.** 3.45 µM

**Q.** What about the TGI (DU-145 prostate) of the same compound?
**A.** 70.5 µM

**Q.** What about the GI50 (EKVX NSCLC) of the same compound?
**A.** 3.55 µM

**Q.** And the TGI (EKVX NSCLC)?
**A.** 73.5 µM

**Q.** What about the GI50 (HCC-2998 colon) of the same compound?
**A.** 5.56 µM

**Q.** And the TGI (HCC-2998 colon)?
**A.** > 100 µM

**Q.** What about the GI50 (HCT-116 colon) of the same compound?
**A.** 1.84 µM

**Q.** What about the TGI (HCT-116 colon) of the same compound?
**A.** 5.3 µM

**Q.** What about the GI50 (HCT-15 colon) of the same compound?
**A.** 1.93 µM

**Q.** And the TGI (HCT-15 colon)?
**A.** 6.28 µM

**Q.** And the GI50 (HL-60(TB) leukemia)?
**A.** 3.8 µM

**Q.** What about the TGI (HL-60(TB) leukemia) of the same compound?
**A.** > 100 µM

**Q.** What about the GI50 (HOP-62 NSCLC) of the same compound?
**A.** 2.53 µM

**Q.** What about the TGI (HOP-62 NSCLC) of the same compound?
**A.** 7.94 µM

**Q.** And the GI50 (HOP-92 NSCLC)?
**A.** 8.39 µM

**Q.** What about the TGI (HOP-92 NSCLC) of the same compound?
**A.** 29.8 µM

**Q.** And the GI50 (HS 578T breast)?
**A.** 0.501 µM

**Q.** And the TGI (HS 578T breast)?
**A.** 3.98 µM

**Q.** And the GI50 (HT29 colon)?
**A.** 2.32 µM

**Q.** What about the TGI (HT29 colon) of the same compound?
**A.** 7.65 µM

**Q.** And the GI50 (IGROV1 ovarian)?
**A.** 2.98 µM

**Q.** What about the TGI (IGROV1 ovarian) of the same compound?
**A.** 8.3 µM

**Q.** And the GI50 (K-562 leukemia)?
**A.** 3.53 µM

**Q.** What about the TGI (K-562 leukemia) of the same compound?
**A.** > 100 µM

**Q.** And the GI50 (KM12 colon)?
**A.** 3.46 µM

**Q.** What about the TGI (KM12 colon) of the same compound?
**A.** 31.1 µM

**Q.** What about the GI50 (LOX IMVI melanoma) of the same compound?
**A.** 1.73 µM

**Q.** What about the TGI (LOX IMVI melanoma) of the same compound?
**A.** 4.3 µM

**Q.** What about the GI50 (M14 melanoma) of the same compound?
**A.** 1.73 µM

**Q.** And the TGI (M14 melanoma)?
**A.** 5.34 µM

**Q.** What about the GI50 (MALME-3M melanoma) of the same compound?
**A.** 2.69 µM

**Q.** And the TGI (MALME-3M melanoma)?
**A.** 8.62 µM

**Q.** What about the GI50 (MCF7 breast) of the same compound?
**A.** 1.87 µM

**Q.** What about the TGI (MCF7 breast) of the same compound?
**A.** 4.95 µM

**Q.** And the GI50 (MDA-MB-231 breast)?
**A.** 3.45 µM

**Q.** What about the TGI (MDA-MB-231 breast) of the same compound?
**A.** 40.8 µM

**Q.** And the GI50 (MDA-MB-435)?
**A.** 1.97 µM

**Q.** And the TGI (MDA-MB-435)?
**A.** 4.17 µM

**Q.** And the GI50 (MOLT-4 leukemia)?
**A.** 2.8 µM

**Q.** What about the TGI (MOLT-4 leukemia) of the same compound?
**A.** > 100 µM

**Q.** And the GI50 (NCI-H226 lung)?
**A.** 3.31 µM

**Q.** And the TGI (NCI-H226 lung)?
**A.** 12.6 µM

**Q.** And the GI50 (NCI-H23 lung)?
**A.** 2.13 µM

**Q.** What about the TGI (NCI-H23 lung) of the same compound?
**A.** 5.29 µM

**Q.** What about the GI50 (NCI-H460 lung) of the same compound?
**A.** 2.38 µM

**Q.** What about the TGI (NCI-H460 lung) of the same compound?
**A.** 5.64 µM

**Q.** And the GI50 (NCI-H522 lung)?
**A.** 2.38 µM

**Q.** And the TGI (NCI-H522 lung)?
**A.** 6.17 µM

**Q.** And the GI50 (NCI/ADR-RES ovarian)?
**A.** 3.34 µM

**Q.** What about the TGI (NCI/ADR-RES ovarian) of the same compound?
**A.** 17 µM

**Q.** And the GI50 (OVCAR-3 ovarian)?
**A.** 3 µM

**Q.** What about the TGI (OVCAR-3 ovarian) of the same compound?
**A.** 11.9 µM

**Q.** And the GI50 (OVCAR-4 ovarian)?
**A.** 3.33 µM

**Q.** What about the TGI (OVCAR-4 ovarian) of the same compound?
**A.** 9.95 µM

**Q.** What about the GI50 (OVCAR-5 ovarian) of the same compound?
**A.** 2.08 µM

**Q.** And the TGI (OVCAR-5 ovarian)?
**A.** 5.29 µM

**Q.** And the GI50 (OVCAR-8 ovarian)?
**A.** 3.43 µM

**Q.** What about the TGI (OVCAR-8 ovarian) of the same compound?
**A.** 86.3 µM

**Q.** And the GI50 (PC-3 prostate)?
**A.** 1.68 µM

**Q.** What about the TGI (PC-3 prostate) of the same compound?
**A.** 4.46 µM

**Q.** What about the GI50 (SF-268 CNS) of the same compound?
**A.** 4.97 µM

**Q.** And the TGI (SF-268 CNS)?
**A.** 27.7 µM

**Q.** And the GI50 (SF-295 CNS)?
**A.** 0.52 µM

**Q.** What about the TGI (SF-295 CNS) of the same compound?
**A.** 2.56 µM

**Q.** And the GI50 (SF-539 CNS)?
**A.** 0.428 µM

**Q.** What about the TGI (SF-539 CNS) of the same compound?
**A.** 1.96 µM

**Q.** What about the GI50 (SK-MEL-2 melanoma) of the same compound?
**A.** 2.14 µM

**Q.** And the TGI (SK-MEL-2 melanoma)?
**A.** 6.37 µM

**Q.** And the GI50 (SK-MEL-28 melanoma)?
**A.** 1.29 µM

**Q.** And the TGI (SK-MEL-28 melanoma)?
**A.** 2.85 µM

**Q.** And the GI50 (SK-MEL-5 melanoma)?
**A.** 2.64 µM

**Q.** What about the TGI (SK-MEL-5 melanoma) of the same compound?
**A.** 6.99 µM

**Q.** And the GI50 (SK-OV-3 ovarian)?
**A.** 4.83 µM

**Q.** What about the TGI (SK-OV-3 ovarian) of the same compound?
**A.** 26.6 µM

**Q.** And the GI50 (SN12C renal)?
**A.** 2.88 µM

**Q.** And the TGI (SN12C renal)?
**A.** 9.83 µM

**Q.** What about the GI50 (SNB-19 CNS) of the same compound?
**A.** 2.59 µM

**Q.** What about the TGI (SNB-19 CNS) of the same compound?
**A.** 13.8 µM

**Q.** What about the GI50 (SNB-75 CNS) of the same compound?
**A.** 1.73 µM

**Q.** What about the TGI (SNB-75 CNS) of the same compound?
**A.** 8.25 µM

**Q.** And the GI50 (SR leukemia)?
**A.** 2.64 µM

**Q.** What about the TGI (SR leukemia) of the same compound?
**A.** > 100 µM

**Q.** And the GI50 (SW-620 colon)?
**A.** 2.07 µM

**Q.** What about the TGI (SW-620 colon) of the same compound?
**A.** 5.28 µM

**Q.** What about the GI50 (T-47D breast) of the same compound?
**A.** 3.62 µM

**Q.** What about the TGI (T-47D breast) of the same compound?
**A.** 27.6 µM

**Q.** What about the GI50 (TK-10 renal) of the same compound?
**A.** 3.39 µM

**Q.** And the TGI (TK-10 renal)?
**A.** 10.1 µM

**Q.** What about the GI50 (U251 CNS) of the same compound?
**A.** 1.41 µM

**Q.** What about the TGI (U251 CNS) of the same compound?
**A.** 4.53 µM

**Q.** What about the GI50 (UACC-257 melanoma) of the same compound?
**A.** 2.43 µM

**Q.** What about the TGI (UACC-257 melanoma) of the same compound?
**A.** 6.7 µM

**Q.** What about the GI50 (UACC-62 melanoma) of the same compound?
**A.** 2.24 µM

**Q.** What about the TGI (UACC-62 melanoma) of the same compound?
**A.** 5.19 µM

**Q.** What about the GI50 (UO-31 renal) of the same compound?
**A.** 2.03 µM

**Q.** What about the TGI (UO-31 renal) of the same compound?
**A.** 5.47 µM
